# Data from patent publication US20220193085A1, “METHODS OF THROMBOPROPHYLAXIS” (JANSSEN PHARMACEUTICALS, INC., priority 2020, published 2022).
# Assays:
# [1] = UNIVERSE study: population PK and steady-state exposure of rivaroxaban in post-Fontan pediatric patients
# Method: Rivaroxaban was administered twice daily (BID) in an open-label fashion as a 0.1% (1 mg/mL) oral suspension based on weight as shown in Table 2 (not related to prandial state).
# Blood samples were collected for PK (i.e., plasma rivaroxaban concentrations) and full PD (prothrombin time [PT], activated partial thromboplastin time [aPTT], and anti-factor Xa activity) assessments on the first day of dosing between 0.5 to 1.5 hours and again between 1.5 to 4.0 hours postdose. Additional samples were collected on Day 4, just prior to rivaroxaban administration (PK, PT, aPTT) and again between 0.5 to 1.5 hours (PK, PT, aPTT), 1.5 to 4.0 hours (PK, PT, aPTT), and 6.0 to 8.0 hours (PK and full PD) postdose. At Month 3, samples were collected just prior to rivaroxaban dosing (PK and full PD) and at 0.5 to 1.5 hours postdose (PK, PT, aPTT) and 2.5 to 4 hours postdose (PK, PT, aPTT). An additional random sample (PK, PT, and aPTT) was collected at Month 12.
# In Part B, blood samples were collected for assessment of PT and aPTT before the first dosing; PK and full PD samples were collected between 0.5 to 1.5 hours and again between 1.5 to 4.0 hours after the first dose. At Month 3, PK and full PD samples were collected just prior to rivaroxaban administration and again between 0.5 to 1.5 hours, and 2.5 to 4.0 hours postdose. An additional random sample (PK, PT, and aPTT) was collected at Month 12.
# Blood samples for PK or PD assays were centrifuged, and the resulting plasma samples were frozen and stored below −15° C. until analyzed. Rivaroxaban plasma concentrations were determined using the validated liquid chromatography/mass spectrometry/mass spectrometry (LC-MS/MS) method with a lower limit of quantitation (LLOQ) of 0.5 μg/L. The pharmacodynamic effects of rivaroxaban were assessed by evaluation of prothrombin time (PT), activated partial thromboplastin time (aPTT), and anti-Factor Xa activity (AXA).
# Patients in Part A received their first dose of rivaroxaban oral suspension on Day 1 (on site) and then continued taking rivaroxaban twice daily for 12 days (+9 days) to achieve steady state. PK and PD samples were collected on Day 1 and Day 4 (+2 days) of rivaroxaban administration (Table 3).
# Part A, individual empirical Bayesian post-hoc PK parameters were derived using the existing population PK model from the Einstein Jr program (with the NONMEM option: $ESTIMATION MAXEVAL=0).
# The population PK model used for the rivaroxaban PK profile evaluation was based on the Einstein Jr program. The pharmacokinetics of rivaroxaban were described by a linear two-compartment model with first-order oral absorption and first-order elimination from the central compartment with the absorption rate constant (KA), apparent clearance of the central compartment (CL/F), apparent central volume of distribution (Vc/F), apparent peripheral volume of distribution (Vp/F), and transport rate between the central and peripheral compartments (CI) as structural model parameters. CL/F, Q/F, Vp/F, and Vc/F were fig. allometrically scaled with body weight. Inter-individual variability (IIV) was identified for KA and CL/F. Residual error was described by a proportional error model.
# [2] = Benefit-risk assessment: excess number of events per 1,000 subjects, Part B rivaroxaban vs aspirin
# Method: Benefit-risk balance was assessed using excess number of events defined as the absolute proportion difference between the Part B rivaroxaban and aspirin groups scaled to 1,000 subjects to reflect benefits and risks on a population level.
# [3] = UNIVERSE primary efficacy outcome: any thrombotic event (CIAC adjudicated); type: in vivo, pediatric patients; conditions: full analysis set
# Source text: This study was a prospective, open-label, active-controlled, multicenter study designed to evaluate the PK and PK/PD profiles, safety, and efficacy of rivaroxaban for thromboprophylaxis in pediatric patients 2 to 8 years of age with single ventricle physiology who have completed the Fontan procedure within 4 months prior to enrollment. The trial was approved by the institutional review board of each participating institution, as well as the appropriate national ethics committee. Written informed consent for trial participation was obtained from the parent or guardian of each patient. An Independent Data Monitoring Committee (IDMC) ensured patients' safety throughout the trial. A Central Independent Adjudication Committee (CIAC) reviewed all efficacy and safety events.
# Part B was the randomized, open-label, active-controlled part of the study that evaluated the safety and efficacy of twice daily administration of rivaroxaban compared to ASA (usual standard of care) for thromboprophylaxis for 12 months. Patients randomized to rivaroxaban also had PK and PD assessments.
# Primary efficacy outcome: Any thrombotic event, venous or arterial, symptomatic or asymptomatic defined as: • The appearance of a new thrombus within the cardiovascular system on either routine surveillance or clinically indicated imaging, or • The occurrence of a clinical event known to be strongly associated with thrombus (e.g., stroke, pulmonary embolism).
# All efficacy outcomes were adjudicated by the CIAC, blinded to assigned treatment.
# [4] = UNIVERSE Part A, weight-based dose regimen BID, N=12
# [5] = UNIVERSE all patients, weight-based dose regimen BID, N=76
# [6] = full UNIVERSE data-set, population PK model
# [7] = full UNIVERSE data-set, subject with body weight of 15 kg
# [8] = Part B rivaroxaban minus aspirin, up to end of treatment, full analysis set
# [9] = Part B rivaroxaban vs aspirin, negative values favor rivaroxaban
# [10] = Part B rivaroxaban vs aspirin, positive values favor aspirin
# [11] = for 1,000 subjects treated with rivaroxaban
# [12] = Part A N=12, up to end of treatment
# [13] = Part B rivaroxaban N=64, aspirin N=34, up to end of treatment
# [14] = rivaroxaban Part A+B total N=76, up to end of treatment
smiles,measurement,setting,value
"O=C(NC[C@H]1CN(c2ccc(N3CCOCC3=O)cc2)C(=O)O1)c1ccc(Cl)s1 [Rivaroxaban, 5-chloro-N-({(5S)-2-oxo-3-[4-(3-oxo-4-morpholinyl)phenyl]-1,3,oxazolidin-5-yl}methyl)-2-thiophenecarboxamide]","Individual values for AUCss,24h, Cmax,ss and Ctrough,ss vs adult reference range",[1]; UNIVERSE Part A,within the adult reference range
same,"AUC24h,ss geometric mean (90% CI)",[1]; [4],1698 ng·h/mL
same,"AUC24h,ss median (range)",[1]; [4],1718 ng·h/mL
same,"Cmax,ss median (range)",[1]; [4],121.8 ng/mL
same,"Ctrough,ss geometric mean (90% CI)",[1]; [4],28.6 ng/mL
same,"Ctrough,ss median (range)",[1]; [4],29 ng/mL
same,"AUC24h,ss geometric mean (90% CI)",[1]; [5],1440 ng·h/mL
same,"Cmax,ss geometric mean (90% CI)",[1]; [5],109.0 ng/mL
same,"Cmax,ss median (range)",[1]; [5],113.3 ng/mL
same,"Ctrough,ss geometric mean (90% CI)",[1]; [5],22.8 ng/mL
same,"Ctrough,ss median (range)",[1]; [5],23.2 ng/mL
same,Body weight exponent for Vc/F,[1]; [6],1.20
same,First-order absorption rate constant,[1]; [6],1.12 h⁻¹
same,CL/F (population PK estimate),[1]; [7],3.30 L/h
same,Q/F (population PK estimate),[1]; [7],1.09 L/h
same,Vc/F (population PK estimate),[1]; [7],17.6 L
same,Excess number of events: CRNM bleeding,[2]; [8],"−25.7 events per 1,000 subjects"
same,Excess number of events: SAEs,[2]; [8],"46.0 events per 1,000 subjects"
same,Excess number of events: all-cause mortality,[2]; [8],"0.0 events per 1,000 subjects"
same,Excess number of events: any thrombotic event (primary efficacy outcome),[2]; [8],"−72.6 events per 1,000 subjects"
same,Excess number of events: arterial/intracardiac thrombosis,[2]; [8],"0.0 events per 1,000 subjects"
same,Excess number of events: fall in hemoglobin ≥2 g/dL or transfusion of the equivalent ≥2 units,[2]; [8],"15.6 events per 1,000 subjects"
same,Excess number of events: fatal or critical site bleeding,[2]; [8],"0.0 events per 1,000 subjects"
same,Excess number of events: ischemic stroke,[2]; [8],"−29.4 events per 1,000 subjects"
same,Excess number of events: major and clinically relevant non-major bleeding,[2]; [8],"−10.1 events per 1,000 subjects"
same,Excess number of events: major bleeding (primary safety outcome),[2]; [8],"15.6 events per 1,000 subjects"
same,Excess number of events: pulmonary embolism,[2]; [8],"15.6 events per 1,000 subjects"
same,Excess number of events: trivial (minimal) bleeding,[2]; [8],"−24.8 events per 1,000 subjects"
same,Excess number of events: venous thromboembolism,[2]; [8],"−43.2 events per 1,000 subjects"
same,Excess number of events: venous thrombosis,[2]; [8],"−58.8 events per 1,000 subjects"
same,NNH: CRNM bleeding,[2]; [9],−39
same,NNH: major and clinically relevant non-major bleeding,[2]; [9],−99
same,NNH: trivial (minimal) bleeding,[2]; [9],−41
same,NNT: any thrombotic event (primary efficacy outcome),[2]; [9],−14
same,NNT: ischemic stroke,[2]; [9],−34
same,NNT: venous thromboembolism,[2]; [9],−24
same,NNT: venous thrombosis,[2]; [9],−17
same,NNH: SAEs,[2]; [10],21
same,NNH: fall in hemoglobin ≥2 g/dL or transfusion of the equivalent ≥2 units,[2]; [10],64
same,NNH: major bleeding (primary safety outcome),[2]; [10],64
same,NNT: pulmonary embolism,[2]; [10],64
same,Less events of clinically relevant non-major bleeding expected than with aspirin,[2]; [11],25 events
same,More events of ISTH major bleeding expected than with aspirin,[2]; [11],16 events
same,Thrombotic events (primary efficacy outcome) expected to be prevented compared with aspirin,[2]; [11],73 events
same,"Ischemic stroke, subjects n (%)",[3]; [12],0
same,"Other thrombosis, subjects n (%)",[3]; [12],0
same,"All-cause mortality, No. of subjects with event",[3]; [13],0
same,"Any thrombotic event (primary efficacy outcome), % of subjects",[3]; [13],(1.6%)
same,"Arterial/intracardiac thrombosis, subjects n (%)",[3]; [13],0
same,"Ischemic stroke, subjects n (%)",[3]; [13],0
same,"Other thrombosis, subjects n (%)",[3]; [13],0
same,"Pulmonary embolism, % of subjects",[3]; [13],(1.6%)
same,"Venous thromboembolism, % of subjects",[3]; [13],(1.6%)
same,"Venous thromboembolism, No. of subjects with event",[3]; [13],1/64
same,"Venous thrombosis, subjects n (%)",[3]; [13],0
same,"Any thrombotic event (primary efficacy outcome), % of subjects",[3]; rivaroxaban Part A+B total N=76,3%
same,"Arterial/intracardiac thrombosis, subjects n (%)",[3]; [14],0
same,"Ischemic stroke, subjects n (%)",[3]; [14],0
same,"Other thrombosis, subjects n (%)",[3]; [14],0
